Test results taken from patent publication US4300011A, “Selective production of aromatics” (Mobil Oil Corporation, priority 1980, dated 1981).

Columns and labels:
[1] = cited from earlier work; for pKa: from Katritzky, Physical Methods in Heterocyclic Chemistry
[2] = Effective critical dimension from CPK space-filling atomic models; assay type: physicochemical
Description: The concept of an "effective critical dimension" of a molecule is described by Breck on pages 633 to 641 in Zeolite Molecular Sieves, John Wiley & Sons, Inc. (1974), the entire contents of which are incorporated herein by reference. Generally, this dimension is the smallest dimension that will permit passage through the pores of the zeolite, i.e., the dimension that most nearly approaches the pore size of the zeolite. For example, the critical dimension of n-hexane is the thickness not the length, while the critical dimension for benzene is the cross-sectional diameter, rather than the thickness.
Effective critical dimensions for the purposes of this invention were determined by the use of CPK (Corey-Pauling-Koltun) space-filling atomic models, obtained from Ealing Corporation, Natick, Mass. The following Table illustrates critical dimensions measured from such models with corresponding pKa values for several heterocyclic compounds.

Row | Compound | relative base strength ([1]; versus 1,10-phenanthroline) | Effective Critical Dimension [2] [Angstroms] | pKa [1]
1 | c1ccc2c(c1)ccc1ncccc12 [5,6-Benzoquinoline] | slightly stronger base than 1,10-phenanthroline | 7.5 | –
2 | Cc1ccncc1C [3,4-Lutidine, 3,4-dimethylpyridine] | – | 7.0 | 6.5
3 | Cc1cc(C)c2ccccc2n1 [2,4-Dimethylquinoline] | – | 7.5 | 5.1
4 | c1ccc2c(c1)ccc1cccnc12 [7,8-Benzoquinoline] | – | 7.5 | –
5 | c1ccncc1 [Pyridine, reference compound] | – | 6.2 | –
6 | Cc1ccc2ccc3ccc(C)nc3c2n1 [Neocuproine, 2,9-dimethyl-1,10-phenanthroline] | – | 8.3 | –
7 | c1ccc(-c2ccnc3c2ccc2c(-c4ccccc4)ccnc23)cc1 [Bathophenanthroline, 4,7-diphenyl-1,10-phenanthroline] | – | 9.5 | –
8 | c1cnc2c(c1)ccc1cccnc12 [1,10-Phenanthroline] | – | 7.5 | –
9 | Cc1ccnc2ccccc12 [4-Methylquinoline] | – | 7.3 | 5.2
10 | Cc1cccc(C)n1 [2,6-Lutidine] | – | 6.6 | 6.8
11 | Cc1ccnc2c(C)cccc12 [4,8-Dimethylquinoline] | – | 7.4 | –
12 | Cc1cc(C)nc(C)c1 [2,4,6-Collidine, 2,4,6-trimethylpyridine] | – | 7.5 | –
13 | Cc1nc(C)c(C)c(C)c1C [Pentamethylpyridine] | – | 7.7 | –
14 | Cc1cc(C)c2cccc(C)c2n1 [2,4,8-Trimethylquinoline] | – | 7.9 | 4.5
